# From US7776833B2, “Use of cyclic bioisosters of purine system derivatives for treating diseases produced by disorders of niterergic and dopaminergic systems” (priority 2003, dated 2010)
# How the values were obtained:
# Assay type in all cases: in vivo, Wistar rats
# [1] = tested on: physical dependence from morphine (morphine abstinence); assay: Morphine abstinence syndrome, signs scored in the open field test; conditions: Morphine − (morphine + compound); compound 3 x 20 mg/kg intramuscularly; one value for the three compounds
# Experimental: Thirty six hours after the last injection selected motor and autonomice parameters which are specific symptoms of abstinence were monitored in the <<open field>> test (an arena with a diameter of 120 cm and wall height of 40 cm).
# Med., 2002, V.29, p.1-6.). The observable signs were recorded quantitatively (if it was possible) with further assignment of an index to each sign (depending on the specific feature of the sign) and calculation of the sum of scores. The expression of the abstinence syndrome was presented as a sum of scores. The results were processed using nonparametric statistical analysis based on the Mann-Whitney test.
# [2] = tested on: nitrites and nitrates (NOx-); assay: Measurement of nitrates/nitrites (NOx-) in brain regions after the morphine abstinence experiment; conditions: 3 x 20 mg/kg intramuscularly
# Experimental: (§1) After the above experiments the rat brains were isolated and immediately placed in the ice cold 0.9% solution of sodium chloride. After cooling the following structures were isolated from the brain: cerebral cortex, hippocampus, mesencephalon, striatum, brainstem, hypothalamus and cerebellum. The isolated tissue was homogenized in a Potter S homogenizer for 3 minutes at 1500 rpm in 4-5 volumes of 20 mM HEPES (pH 7.5) at 4° C. The supernatants were centrifuged for 30 minutes at 11000 g at 4° C., and aliquots of the obtained supernatants were taken for determining nitrates and nitrites (NOx-), while the remaining part was mixed with cooled 20 mM of HEPES (pH 7.5), containing 0.5 mM ethylenediamine tetraacetate (EDTA), 1 mM dithiotreitol (DDT), 1 mM phenylmethylsulfonyl fluoride (PMSF), aprotinine and leupeptine at a concentration of 5 μg/ml, this mixture being used for determining nitric oxide synthase (NOS) activity.
# To estimate the intensity of metabolism of nitric oxide in rats, quantitative determination of stable metabolites of nitrogen oxide-nitrites and nitrates (NOx-) was performed using a fluorometric method by fluorescence of naphthotriazole, a product of reaction of 2,3- diaminonaphthalene (DAN) and nitrite in an acidic medium (Misko T. R., Schilling R. J., Salvemini D. et al. A fluorometric assay for the measurement of nitrite in biological samples. Anal. Biochem., 1993, V. 214, p.11-16) with modifications (Lei B., Adachi N., Nagaro T., Arai T. Measurement of total nitric oxide metabolite (NO (x) (-)) levels in vivo. Brain. Res. Protoc., 1999, V. 4, p. 415-419).
# The supernatants of brain deproteinized at 100° C. were placed in a nitrite recovery system containing 0.125 unit/ml of nitrate reductase, 25 μM NADPH and 25 μM FAD prepared in 20 mM Tris-HCl buffer pH 7.6 and incubated for 30 minutes at 37° C. For oxidation of NADPH a lactate dehydrogenase (LDH)/pyruvate system was used. Then 316.0 μM DAN solution in 0.62 M HCl was added and the mixture was incubated for 10 minutes in dark. For stabilization of fluorescence of the formed naphthotriazole, 280 mM NaOH was added. The fluorescence intensity was measured using spectrofluorometer Hitachi F-3000 at a wavelength of excitation 365 nm and emission 405 nm. To calculate the concentration of NOx- in the brain a standard solution of sodium nitrate was used. The concentration of NOx- was expressed in nmol/mg of protein.
# (§2) The content of protein in the samples was determined by the Bradford method (Bradford M. M. A rapid and sensitive method for quantitation of microgram quantities of protein using the principle of protein binding . Anal. Biochem., 1976, V. 72, p. 248-254) using Coumassi dye. The statistical analysis was performed using methods appropriate for respective experiments. The data are expressed as mean±standard error of mean.
# [3] = tested on: nitric oxide synthase (NOS); assay: Nitric oxide synthase activity in brain regions, radiometric [3H]L-citrulline method; conditions: 3 x 20 mg/kg intramuscularly
# Experimental: as §1
# The activity of nitric oxide synthase (NOS) was determined using a radiometric method by the rate of L-citrulline accumulation in a reaction of [^3H] L-arginine oxidation catalyzed by NOS (Bredt M., Snyder S. Nitric oxide mediates glutamate-linked enhancement of cGMP levels in the cerebellum. Proc. Natl. Acad. Sci., USA, 1989, V.86, p.9030-9033). The formation of L-citrulline in this reaction is equivalent to a biosynthesis of nitric oxide.
# The reaction was initiated by adding brain supernatant in the reaction medium containing 2 μCi/ml of [3H] L-arginine, 20 mM HEPES (pH 7.4), 0.2 mM CaCl2, 5 μM FAD, 5 μM FMN, 1 mM NADPH, 50 μM of BH4. After 15-60 minutes of incubation at 37° C. a suspension of Dowex 50WX8-400 (Na^+-form), which sorbs unreacted [^3H]L-arginine, but not [^3H] L-citrulline was added to the samples. After the sorption the radioactivity of the samples was determined on a scintillation counter SL-4000 (“Intertechnique”). The activity of Ca^2+-dependent and Ca^2+-independent NOS isoforms was determined by the difference of rates of [^3H]L-citrulline formation in three parallel samples containing 2 mM EDTA (Ca^2+ chelator), 2 mM EDTA+2 mM L-NAME (inhibitor all NOS isoforms) or without inhibitors. The enzyme activity was expressed in rnol [^3H]L-citrulline acumulated per 1 minute on 1 mg of supernatant protein.
# as §2
# [4] = Groups Nos. 3-14, compound without morphine, one value for all 12 compounds
# [5] = Morphine + compound, one value for the three compounds
SMILES,Authentic differences (ξ-square criterion) in appearance of signs of abstinence: <<Wet dog>> shakes [1],Authentic differences (ξ-square criterion) in appearance of signs of abstinence: Aggression [1],Authentic differences (ξ-square criterion) in appearance of signs of abstinence: Convulsions [1],Authentic differences (ξ-square criterion) in appearance of signs of abstinence: Diarrhea [1],Authentic differences (ξ-square criterion) in appearance of signs of abstinence: Dyspnea [1],Authentic differences (ξ-square criterion) in appearance of signs of abstinence: Forelimb jogging [1],Authentic differences (ξ-square criterion) in appearance of signs of abstinence: Grit with teeth [1],Authentic differences (ξ-square criterion) in appearance of signs of abstinence: Mastication [1],Authentic differences (ξ-square criterion) in appearance of signs of abstinence: Piloerection [1],Authentic differences (ξ-square criterion) in appearance of signs of abstinence: Ptosis [1],Authentic differences (ξ-square criterion) in appearance of signs of abstinence: Rhinorrhea [1],Authentic differences (ξ-square criterion) in appearance of signs of abstinence: Squeak when touched [1],"Nitrites, brainstem [2, 4]","Nitrites, cerebellum [2, 4]","Nitrites, cerebral cortex [2, 4]","Nitrites, hippocampus [2, 4]","Nitrites, hypothalamus [2, 4]","Nitrites, midbrain [2, 4]","Nitrites, striatum [2, 4]","Nitrites, brainstem [2, 5]",also measured
"O=c1[nH]n([C@@H]2O[C@H](CO)[C@@H](O)[C@H]2O)c(=O)c2nccc(O)c12.[Na] [Compound 4, isodium salt of 4-hydroxy-7-(β-D-ribofuranosile)pyrido[2,3-d]-6H-pyridazine-5,8-dione]",1.0000,0.8327,0.7821,0.0046,0.0722,0.7821,0.7144,0.1888,0.1847,0.0201,0.3017,0.1888,6.31 ± 0.58 nmol/mg of protein,6.66 ± 0.63 nmol/mg of protein,4.31 ± 0.37 nmol/mg of protein,6.47 ± 0.72 nmol/mg of protein,6.77 ± 0.83 nmol/mg of protein,6.65 ± 0.70 nmol/mg of protein,6.11 ± 0.29 nmol/mg of protein,6.57 ± 0.72 nmol/mg of protein,"Nitrites, cerebellum [2, 5]: 5.46 ± 0.44 nmol/mg of protein; Nitrites, cerebral cortex [2, 5]: 4.72 ± 0.37 nmol/mg of protein; Nitrites, hippocampus [2, 5]: 5.44 ± 0.43 nmol/mg of protein; Nitrites, hypothalamus [2, 5]: 6.57 ± 0.88 nmol/mg of protein; Nitrites, midbrain [2, 5]: 5.50 ± 0.48 nmol/mg of protein; Nitrites, striatum [2, 5]: 3.57 ± 0.42 nmol/mg of protein; Activity of NOS, hippocampus [3, 4]: 3.09 ± 0.16 nmol/min/mg of protein; Activity of NOS, hypothalamus [3, 4]: 5.45 ± 0.24 nmol/min/mg of protein; Activity of NOS, midbrain [3, 4]: 2.60 ± 0.29 nmol/min/mg of protein; Activity of NOS, striatum [3, 4]: 1.26 ± 0.08 nmol/min/mg of protein; Activity of NOS, hippocampus [3, 5]: 2.70 ± 0.14 nmol/min/mg of protein; Activity of NOS, hypothalamus [3, 5]: 5.26 ± 0.28 nmol/min/mg of protein; Activity of NOS, midbrain [3, 5]: 1.83 ± 0.23 nmol/min/mg of protein; Activity of NOS, striatum [3, 5]: 1.24 ± 0.08 nmol/min/mg of protein"
"O=c1[nH]n([C@@H]2O[C@H](CO)[C@@H](O)[C@H]2O)c(=O)c2ncccc12.[Na] [Compound 1, sodium salt of 7-(β-D-ribofuranosile)pyrido[2,3-d]-6H-pyridazine-5,8-dione]",1.0000,0.8327,0.7821,0.0046,0.0722,0.7821,0.7144,0.1888,0.1847,0.0201,0.3017,0.1888,6.31 ± 0.58 nmol/mg of protein,6.66 ± 0.63 nmol/mg of protein,4.31 ± 0.37 nmol/mg of protein,6.47 ± 0.72 nmol/mg of protein,6.77 ± 0.83 nmol/mg of protein,6.65 ± 0.70 nmol/mg of protein,6.11 ± 0.29 nmol/mg of protein,6.57 ± 0.72 nmol/mg of protein,"Nitrites, cerebellum [2, 5]: 5.46 ± 0.44 nmol/mg of protein; Nitrites, cerebral cortex [2, 5]: 4.72 ± 0.37 nmol/mg of protein; Nitrites, hippocampus [2, 5]: 5.44 ± 0.43 nmol/mg of protein; Nitrites, hypothalamus [2, 5]: 6.57 ± 0.88 nmol/mg of protein; Nitrites, midbrain [2, 5]: 5.50 ± 0.48 nmol/mg of protein; Nitrites, striatum [2, 5]: 3.57 ± 0.42 nmol/mg of protein; Activity of NOS, hippocampus [3, 4]: 3.09 ± 0.16 nmol/min/mg of protein; Activity of NOS, hypothalamus [3, 4]: 5.45 ± 0.24 nmol/min/mg of protein; Activity of NOS, midbrain [3, 4]: 2.60 ± 0.29 nmol/min/mg of protein; Activity of NOS, striatum [3, 4]: 1.26 ± 0.08 nmol/min/mg of protein; Activity of NOS, hippocampus [3, 5]: 2.70 ± 0.14 nmol/min/mg of protein; Activity of NOS, hypothalamus [3, 5]: 5.26 ± 0.28 nmol/min/mg of protein; Activity of NOS, midbrain [3, 5]: 1.83 ± 0.23 nmol/min/mg of protein; Activity of NOS, striatum [3, 5]: 1.24 ± 0.08 nmol/min/mg of protein"
